Results on one molecule are retold here after patent US20070259060A1, “Formulations and Methods for Treating Breast Cancer with Morinda Citrifolia and Methylsulfonymethane” (priority 2003, published 2007).

For series [1], the system named is mammary gland tumorigenesis induced by estrogen. Put plainly: E2-induced mammary tumors (Example Four). In kind it is in vivo, female ACI rats. The text has this: FIG. 2 is a graphical representation of the preventative effects of Morinda citrifolia-containing compounds on mammary gland tumorigenesis induced by estrogen in female ACI rats in accordance with the present invention.
Sixty five-week old female rats were divided into four groups of fifteen rats each and placed on regular diets. Another eight female rats served as age-matched controls. One group of experimental rats was given 5% placebo in drinking water, the second experimental group was given 5% Morinda citrifolia juice in drinking water, the third experimental group was given 5% Methylsulfonylmethane (“MSM”) in drinking water, and the fourth experimental group was given a combination of 5% Morinda citrifolia juice and 5% MSM in drinking water. Two weeks later, all animals were implanted subcutaneously with a 25 mg pellet containing 22.5 mg of 17β-estradiol (E2) mixed with 2.5 mg cholesterol. Each experimental group was provided with its respective formulation for ninety days following estrogen (E2) implantation. The age-matched control animals received a 25 mg cholesterol pellet implant.
All rats with an E2 implant in the placebo group had mammary gland tumors. One hundred percent (100%) of the rats in this group had three to seven tumors. Seventy-one percent (71%) of the rats in the Morinda citrifolia group had two to five tumors. Fifty-seven percent (57%) of the rats in the MSM group had one to four tumors. Forty-three percent (43%) of the rats in the combination group had zero to three tumors.
The average tumor area in the placebo group, Morinda citrifolia group, MSM group, and combination group at 180 days after E2 implantation were 17, 12, 10 and 6 mm^2, respectively. The survival rates of the control, placebo, Morinda citrifolia, MSM and combination groups one hundred and sixty days after E2 implantation were 100%, 0%, 47%, 73%, and 87%, respectively. The survival rates of each group at one hundred eighty days after E2 implantation was 100%, 0%, 0%, 20% and 60%, respectively. At two hundred days, the survival rates of each group were 100%, 0%, 0%, 0%, and 27%, respectively.

The subject of series [2] is mammary carcinogenesis induced by DMBA. Put plainly: DMBA-induced mammary carcinogenesis, Morinda citrifolia/MSM combination (Example Five). In kind it is in vivo, female SD rats. The text has this:
In research supporting the present invention, the cancer preventive effects of Morinda citrifolia, MSM, and their combination at the initiation stage of multiple stage chemical carcinogenesis was investigated on a mammary breast carcinogenic animal model induced by DMBA in female SD rats. In the experiment, seventy-five female SD rats were divided into five groups: age-matched control, DMBA, 5% Morinda citrifolia+DMBA, 5% MSM+DMBA, and 5% Morinda citrifolia+5% MSM+DMBA groups. The experiment was started at the 35th postnatal day with water being given to the age-matched control group and the DMBA group, while 5% Morinda citrifolia, 5% MSM, and 5% Morinda citrifolia+5% MSM was supplied to the Morinda citrifolia, MSM, and Morinda citrifolia+MSM+DMBA groups. DMBA (25 mg/kg) was administered by mouth at the 50th postnatal day in the DMBA, Morinda citrifolia+DMBA, MSM+DMBA, and Morinda citrifolia+MSM+DMBA groups. Morinda citrifolia, MSM, Morinda citrifolia+MSM were continuously supplied for an additional 90 days after DMBA administration. All animals were sacrificed at the 9th month after DMBA treatment to examine the pathological changes in the mammary glands by light microscopy. […] Therefore, this synergistic combination regimen may contribute to human breast cancer prevention at the initiation stage of carcinogenesis. […]

Setting [3] is: 5% in drinking water from two weeks before to ninety days after E2 implantation.

Consider `CS(C)(=O)=O` [MSM, methylsulfonylmethane], for which the “number of tumors per rat” value in series [1] (setting [3]) is listed as “one to four”. Moreover, the “percent of the rats with mammary tumors” value in series [1] (setting [3]) is reported as 57%. Also, the body weight entry in series [1] (5% in drinking water, E2 implant) is “slight body weight loss”. Besides, the average tumor area in series [1] (180 days after E2 implantation) was 10 mm^2. The survival rate in series [1] (one hundred and sixty days after E2 implantation) was 73%; in series [1] (one hundred eighty days after E2 implantation) it was 20%; in series [1] (two hundred days after E2 implantation), 0%. The mild hyperplasia in series [2] (5% each, sacrificed 9th month after DMBA) is on record as 75%. For the same molecule, the “benign tumor or carcinoma in mammary glands by light microscopy” value in series [2] (5% from 35th postnatal day until 90 days after DMBA 25 mg/kg by mouth, sacrificed 9th month) is recorded as “No benign tumor or carcinoma was observed”.
